From patent publication US20200399392A1, “INHIBITORS OF PLA2-G1B COFACTORS FOR TREATING CANCER” (priority 2018, published 2020)

Columns and labels:
PLA2-GIB [1] = test: PLA2-GIB enzymatic assay on [3H] arachidonic acid labelled Jurkat E6.1 T cells; type: cell-based, human; conditions: Jurkat E6.1 cells pretreated 21 h, 200 nM PLA2-GIB, FIG. 15
Description: Jurkat E6.1 T cells (ECACC 88042803) or gC1qR KO Jurkat E6.1 T cells were incubated for 17 h at 5×10^5 cells/ml with 1 μCi/ml of arachidonic acid [5,6,8,9,11,14,15-^3H(N)] (Perkin Elmer, NET298Z250UC) in RPMI 1640 medium (Lonza) supplemented with 10% FBS, 50 mM HEPES pH 7.4, glutamine, penicillin, streptomycin and fungizone at 2 ml/well in 6-well plates at 37° C. in a 5% CO2 humidified atmosphere. Cells were washed twice with RPMI with 10% FBS by centrifugation at 300×g for 10 minutes at room temperature and then frozen in 90% FBS 10% DMSO at 10^7 cells/ml/vial at −80° C. Percent of [3H] arachidonic acid in CD4 T cells is the (1 minus ratio of [3H] arachidonic acid in the supernatant of CD4 T cells without cells (cpm/ml) on total [3H] arachidonic acid in supernatant and cells (cpm/ml).
To test PLA2-GIB activity on [3H] arachidonic acid labelled Jurkat E6.1 T lymphocytes, cells were unfrozen in 10% FBS RPMI preheated at 37° C. by centrifugation at 300×g for 10 minutes at room temperature, washed twice in 2.5% FBS RPMI, and equilibrated at 5×10^4 or 10^5 Jurkat E6.1 T cells/400 μl/well in 24-well polystyrene plates for 1 h30 at 37° C. in a 5% CO2 humidified atmosphere. Then HCV core solution or vehicle dilution in 2.5% FBS RPMI at 5.95 μM was mixed with an equal volume of a PLA2GIB solution at 630 nM or 2 μM 2.5% FBS RPMI and 100 μl were added per well at the same time for 2 h. For peptide treatments, cells were pretreated for 2 h, 4 h or 21 h, as indicated on figures, with 50 μl per well of peptide solutions at 110 μM or 55 μM in 2.5% FBS RPMI. Then 50 μl per well of PLA2-GIB at 630 nM or 2 μM 2.5% FBS RPMI or medium alone were added for 2 h. Cells and supernatant were collected in eppendorf tubes and centrifuged at 580×g for 10 minutes at room temperature. The [3H] arachidonic acid released in cell supernatant was quantified in 300 μl with 16 ml of Ultima gold (Perkin Elmer, 6013329) in low diffusion vials (Perkin Elmer, 6000477) on a counter (tri-Carb 2800 TR liquid scintillation analyzer, Perkin Elmer).

pSTAT5 NT in CD4 T cells = test: PLA2-GIB bioassay on CD4 T cells: pSTAT5 nuclear translocation in response to IL-7, confocal microscopy; type: cell-based, human; conditions: for nuclear translocation of phosphoSTAT5 (pSTAT5 NT) induced by IL-7: buffer, FIG. 1A; for pSTAT5 NT in response to IL-7: FIG. 2; for effect on pSTAT5 NT: FIG. 5B
Text: Purification of Human CD4 T-lymphocytes—Venous blood was obtained from healthy volunteers through the EFS (Etablissement Français du Sang, Centre Necker-Cabanel, Paris). CD4 T-cells were purified from whole blood using RosetteSep Human CD4+ T cell Enrichment Cocktail (Stem Cell, 15062). This cocktail contains mouse and rat monoclonal antibodies purified from mouse ascites fluid or hybridoma culture supernatant, by affinity chromatography using protein A or Protein G sepharose. These antibodies are bound in bispecific tetrameric antibody complexes which are directed against cell surface antigens on human hematopoietic cells (CD8, CD16, CD19, CD36, CD56 CD66b, TCRγ/δ) and glycophorin A on red blood cells. The rosetteSep antibody cocktail crosslinks unwanted cells in human whole blood to multiple red blood cells, forming immunorosettes. This increases the density of unwanted cells, such that they pellet along with the free red blood cells when centrifuged over a buoyant density medium such as lymphocytes separation medium (Eurobio, CMSMSL01-01).
Whole blood was incubated with RosetteSep Human CD4+ T cell Enrichment Cocktail at 50 μl/ml for 20 minutes at room temperature under gentle shaking (100 rpm), diluted with an equal volume of PBS+2% foetal bovine serum (FBS) and mixed gently. The diluted samples were centrifuged 20 minutes at 1200×g on top of lymphocytes separation medium. The enriched cells were then collected from the density medium at plasma interface and washed twice with PBS+2% FBS. Cells were subsequently resuspended in RPMI 1640 medium (Lonza) supplemented with 5% FBS, 50 mM HEPES pH 7.4, glutamine, penicillin, streptomycin and fungizone (complete medium), counted with a Moxi Z mini automated cell counter (ORFLO, MXZ000). Cells suspension was adjusted at 7×10^6 cells/ml and equilibrated at least 2 h at 37° C. in a 5% CO2 humidified atmosphere.
The enriched CD4-T cell population was controlled by flow cytometry on a cytoflex (Beckman coulter). The quiescence of recovered CD4 T-cells was controlled by the low level of IL-2Rα (CD25).

gC1qR = molecular target: T1, gC1qR (Homo sapiens, UniProt Q07021); test: gC1qR-peptides binding assay (ELISA on microplates); conditions: peptide coated, His-tag-gC1qR 0 to 3 μg/well, FIG. 12
T1 sequence (Q07021 74-282): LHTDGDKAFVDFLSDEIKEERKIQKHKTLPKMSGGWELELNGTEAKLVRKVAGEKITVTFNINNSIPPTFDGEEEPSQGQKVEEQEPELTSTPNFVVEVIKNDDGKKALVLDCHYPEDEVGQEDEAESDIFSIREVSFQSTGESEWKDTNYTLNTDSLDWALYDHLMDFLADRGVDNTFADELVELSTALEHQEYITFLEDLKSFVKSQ
Description: The unbound protein was removed; the wells washed 2× with TBST (20 mM Tris-HCl pH 7.5, 150 mM NaCl, and 0.05% Tween-20) and the unreacted sites blocked by incubation (30 min, room temp) with 300 μl of 3% BSA in TBST. After washing (2× with TBST), the microtiter plate bound peptides was incubated (2 h, room temp.) with different amount of His-tag-gC1qR ranging from 0 to 3 μg/well in triplicate. After washing (5 times with TBST), 100 μl of anti-His tag-HRP antibody (1:1000; 71840-3, Merck) in 3% BSA in TBST was added per well and incubated for 2 h at room temperature. Microplates wells were then washed (5 times with TBST) and 100 μl of TMB ELISA substrate standard solution (UP664781, Interchim) was added per well. Reaction was stopped with 100 μl per well of a H2SO4 solution at 0.16M and OD at 450 nm was measured on a microplate reader (Tecan Infinite M1000 Pro).
A scrambled peptide or a control peptide were used as control.

PLA2-GIB [2] = test: PLA2-GIB enzymatic assay on [3H] arachidonic acid labelled CD4 T cells; type: cell-based, human; conditions: SA protein A alone at 10, 25 and 50 μg/ml, FIG. 9A
Description: PLA2-GIB enzymatic assay on [3H] arachidonic acid labelled CD4 T cells or Jurkat E6.1 T cells—Purified CD4 T-cells were incubated for 16 h at 2×10^6 cells/ml with 1 μCi/ml of arachidonic acid [5,6,8,9,11,14,15-^3H(N)] (Perkin Elmer, NET298Z250UC) in RPMI 1640 medium (Lonza) supplemented with 10% FBS, 50 mM HEPES pH 7.4, glutamine, penicillin, streptomycin and fungizone at 2 ml/well in 6-well plates at 37° C. in a 5% CO2 humidified atmosphere. Cells were washed twice with RPMI with 10% FBS by centrifugation at 580×g for 10 minutes at room temperature and then frozen in 90% FBS 10% DMSO at 10^7 cells/ml/vial at −80° C. […]
To test PLA2-GIB activity on [3H] arachidonic acid labelled CD4 T lymphocytes, cells were unfrozen in 10% FBS RPMI preheated at 37° C. by centrifugation at 580×g for 10 minutes at room temperature, washed twice in 2.5% FBS RPMI, and equilibrated at 2×10^5 CD4 T cells/400 μl/well in 24-well polystyrene plates for 1 h30 at 37° C. in a 5% CO2 humidified atmosphere. […] The [3H] arachidonic acid released in cell supernatant was quantified in 300 μl with 16 ml of Ultima gold (Perkin Elmer, 6013329) in low diffusion vials (Perkin Elmer, 6000477) on a counter (tri-Carb 2800 TR liquid scintillation analyzer, Perkin Elmer). […]

[3] = molecular target: gC1qR at the surface of human CD4 T cells / Jurkat E6.1 T cells (human) (UniProt Q07021); test: cell-based or functional assay

NH2-SGEGGWSNGSLVDIM-COOH (H-SGEGGWSNGSLVDIM-OH) [HP Pg]
PLA2-GIB activity vs scrambled PEP3 (PLA2-GIB [1]): significantly increased

C1q: Complement component C1q from human serum (Sigma C1740), natural ligand of gC1qR
inhibition of pSTAT5 NT (pSTAT5 NT in CD4 T cells; C1q alone (10 μg/ml), FIG. 6A): 40%

NH2-WNWDSKILSDPAWNS—COOH (H-WNWDSKILSDPAWNS-OH) [Scrambled PEP3, scrambled version of PEP3 used as control]
binding to gC1qR (gC1qR): essentially do not

PLA2-GIB: Human group IB pancreatic phospholipase A2, recombinant, produced in E. coli or in CHO-S
nuclear translocation of phosphoSTAT5 (pSTAT5 NT) induced by IL-7 (pSTAT5 NT in CD4 T cells; 5 nM of PLA2-GIB alone): does not affect | pSTAT5 NT in response to IL-7 (pSTAT5 NT in CD4 T cells; 5 nM of PLA2-GIB, compared with more than 92% without PLA2-GIB): biologically similar | inhibition of pSTAT5 NT (pSTAT5 NT in CD4 T cells; 75 nM of PLA2-GIB alone, FIG. 4): 49% | nuclear translocation of phosphoSTAT5 (pSTAT5 NT) induced by IL-7 (pSTAT5 NT in CD4 T cells; 75 nM of PLA2-GIB alone): significantly decreases | pSTAT5 NT in response to IL-7 (pSTAT5 NT in CD4 T cells; 75 nM of PLA2-GIB): 50% | inhibition of pSTAT5 NT (pSTAT5 NT in CD4 T cells; 250 nM of PLA2-GIB alone, FIG. 4): 79% | pSTAT5 NT in response to IL-7 (pSTAT5 NT in CD4 T cells; 250 nM of PLA2-GIB): 10%

NH2-PWNATWTQRTLDDIW—COOH (H-PWNATWTQRTLDDIW-OH) [CTL peptide, control peptide for PEP3]
effect on pSTAT5 NT (pSTAT5 NT in CD4 T cells; peptide alone, without PLA2-GIB): no effect | effect on pSTAT5 NT (pSTAT5 NT in CD4 T cells; peptide with 5 nM of PLA2-GIB): no effect | binding to gC1qR (gC1qR): essentially do not

SA protein A: Staphylococcus aureus protein A, Sigma P6031
release of [3H] arachidonic acids by CD4 T cells (PLA2-GIB [2]): slightly induces

B1: PEP3 peptide NH2-…-COOH (peptide)
peptide: H-PWNASWSNKSLDDIW-OH
inhibition of pSTAT5 NT in CD4 T cells, 0.025 ug/ml PEP3 with 5 nM PLA2-GIB [3]: 18% | inhibition of pSTAT5 NT in CD4 T cells, 0.5 ug/ml PEP3 with 5 nM PLA2-GIB [3]: 55% | inhibition of pSTAT5 NT in CD4 T cells, 2.5 ug/ml PEP3 with 5 nM PLA2-GIB [3]: 51%
